Measured values reported in publication PMC8699473, “An Easily Expandable Multi-Drug LC-MS Assay for the Simultaneous Quantification of 57 Oral Antitumor Drugs in Human Plasma” (Cancers, 2021).

Legend:
[1] = Freeze-thaw stability in spiked pooled human plasma; type: physicochemical
[2] = design: method as in supplement references [1-55] as printed per drug; settings: minimum steady-state blood plasma concentration after multiple dose administration; ref supplement references [1-55] per drug; cited from earlier work
[3] = Autosampler stability of ready for injection samples; type: physicochemical, human
[4] = Long-term stability in spiked pooled human plasma
[5] = Short-term stability in spiked pooled human plasma (bench-top, 4 °C, 56 °C)

COc1cc(Nc2c(C#N)cnc3cc(OCCCN4CCN(C)CC4)c(OC)cc23)c(Cl)cc1Cl [Bosutinib]
Freeze-Thaw Accuracy [%] ([1]; validation standard 2xLLOV): 89.9%
Freeze-Thaw Accuracy [%] ([1]; validation standard LLOV): 102.2%
Freeze-Thaw Accuracy [%] ([1]; validation standard MOV): 92.6%
Freeze-Thaw Accuracy [%] ([1]; validation standard ULOV): 94.6%
cmin [2]: 147 ng/mL

CC(=O)c1c(C)c2cnc(Nc3ccc(N4CCNCC4)cn3)nc2n(C2CCCC2)c1=O [Palbociclib]
Autosampler (24h, 4°C) Accuracy [%] ([3]; validation standard 2xLLOV): 99.9%
Autosampler (72h, 4°C) Accuracy [%] ([3]; validation standard 2xLLOV): 100.1%
Autosampler (24h, 4°C) Accuracy [%] ([3]; validation standard LLOV): 99.4%
Autosampler (72h, 4°C) Accuracy [%] ([3]; validation standard LLOV): 97.9%
Autosampler (24h, 4°C) Accuracy [%] ([3]; validation standard MOV): 101.0%
Autosampler (72h, 4°C) Accuracy [%] ([3]; validation standard MOV): 96.9%
Autosampler (24h, 4°C) Accuracy [%] ([3]; validation standard ULOV): 103.9%
Autosampler (72h, 4°C) Accuracy [%] ([3]; validation standard ULOV): 102.9%

CC[C@H](Nc1ncnc2[nH]cnc12)c1nc2cccc(F)c2c(=O)n1-c1ccccc1 [Idelalisib]
Freeze-Thaw Accuracy [%] ([1]; validation standard 2xLLOV): 98.2%
Freeze-Thaw Accuracy [%] ([1]; validation standard LLOV): 110.6%
Freeze-Thaw Accuracy [%] ([1]; validation standard MOV): 96.5%
Freeze-Thaw Accuracy [%] ([1]; validation standard ULOV): 101.5%
Autosampler (24h, 4°C) Accuracy [%] ([3]; validation standard 2xLLOV): 103.2%
Autosampler (72h, 4°C) Accuracy [%] ([3]; validation standard 2xLLOV): 98.6%
Autosampler (24h, 4°C) Accuracy [%] ([3]; validation standard LLOV): 109.4%
Autosampler (72h, 4°C) Accuracy [%] ([3]; validation standard LLOV): 109.4%
Autosampler (24h, 4°C) Accuracy [%] ([3]; validation standard MOV): 102.6%
Autosampler (72h, 4°C) Accuracy [%] ([3]; validation standard MOV): 97.1%
Autosampler (24h, 4°C) Accuracy [%] ([3]; validation standard ULOV): 103.9%
Autosampler (72h, 4°C) Accuracy [%] ([3]; validation standard ULOV): 101.4%
cmin [2]: 318 ng/mL

Cc1[nH]c2ccccc2c1CCNCc1ccc(/C=C/C(=O)NO)cc1 [Panobinostat]
Freeze-Thaw Accuracy [%] ([1]; validation standard 2xLLOV): 107.5%
Freeze-Thaw Accuracy [%] ([1]; validation standard LLOV): 104.3%
Freeze-Thaw Accuracy [%] ([1]; validation standard MOV): 98.8%
Freeze-Thaw Accuracy [%] ([1]; validation standard ULOV): 102.3%
Autosampler (24h, 4°C) Accuracy [%] ([3]; validation standard 2xLLOV): 100.3%
Autosampler (72h, 4°C) Accuracy [%] ([3]; validation standard 2xLLOV): 95.4%
Autosampler (24h, 4°C) Accuracy [%] ([3]; validation standard LLOV): 83.8%
Autosampler (72h, 4°C) Accuracy [%] ([3]; validation standard LLOV): 73.7%
Autosampler (24h, 4°C) Accuracy [%] ([3]; validation standard MOV): 102.4%
Autosampler (72h, 4°C) Accuracy [%] ([3]; validation standard MOV): 101.0%
Autosampler (24h, 4°C) Accuracy [%] ([3]; validation standard ULOV): 95.4%
Autosampler (72h, 4°C) Accuracy [%] ([3]; validation standard ULOV): 101.1%
Long-term stability, 1 month, -20°C Accuracy [%] ([4]; validation standard 2xLLOV): 52.2%
Long-term stability, 1 month, -80°C Accuracy [%] ([4]; validation standard 2xLLOV): 59.0%
Long-term stability, 2 month, -20°C Accuracy [%] ([4]; validation standard 2xLLOV): 66.3%
Long-term stability, 2 month, -80°C Accuracy [%] ([4]; validation standard 2xLLOV): 107.6%
Long-term stability, 3 month, -20°C Accuracy [%] ([4]; validation standard 2xLLOV): 57.5%
Long-term stability, 3 month, -80°C Accuracy [%] ([4]; validation standard 2xLLOV): 67.6%
Long-term stability, 6 weeks, 4°C, without daylight Accuracy [%] ([4]; validation standard 2xLLOV): 11.4%
Long-term stability, 1 month, -20°C Accuracy [%] ([4]; validation standard LLOV): 38.2%
Long-term stability, 1 month, -80°C Accuracy [%] ([4]; validation standard LLOV): 33.7%
Long-term stability, 2 month, -20°C Accuracy [%] ([4]; validation standard LLOV): 21.2%
Long-term stability, 2 month, -80°C Accuracy [%] ([4]; validation standard LLOV): 29.9%
Long-term stability, 3 month, -20°C Accuracy [%] ([4]; validation standard LLOV): 8.2%
Long-term stability, 3 month, -80°C Accuracy [%] ([4]; validation standard LLOV): 34.0%
Long-term stability, 1 month, -20°C Accuracy [%] ([4]; validation standard MOV): 82.0%
Long-term stability, 1 month, -80°C Accuracy [%] ([4]; validation standard MOV): 84.1%
Long-term stability, 2 month, -20°C Accuracy [%] ([4]; validation standard MOV): 75.7%
Long-term stability, 2 month, -80°C Accuracy [%] ([4]; validation standard MOV): 87.5%
Long-term stability, 3 month, -20°C Accuracy [%] ([4]; validation standard MOV): 66.1%
Long-term stability, 3 month, -80°C Accuracy [%] ([4]; validation standard MOV): 82.1%
Long-term stability, 6 weeks, 4°C, without daylight Accuracy [%] ([4]; validation standard MOV): 67.6%
Long-term stability, 1 month, -20°C Accuracy [%] ([4]; validation standard ULOV): 89.6%
Long-term stability, 1 month, -80°C Accuracy [%] ([4]; validation standard ULOV): 89.9%
Long-term stability, 2 month, -20°C Accuracy [%] ([4]; validation standard ULOV): 98.1%
Long-term stability, 2 month, -80°C Accuracy [%] ([4]; validation standard ULOV): 99.4%
Long-term stability, 3 month, -20°C Accuracy [%] ([4]; validation standard ULOV): 87.5%
Long-term stability, 3 month, -80°C Accuracy [%] ([4]; validation standard ULOV): 100.2%
Long-term stability, 6 weeks, 4°C, without daylight Accuracy [%] ([4]; validation standard ULOV): 79.4%
Short-time stability (1h, 56°C) Accuracy [%] ([5]; validation standard 2xLLOV): 27.6%
Short-time stability (24h, 4°C, without daylight) Accuracy [%] ([5]; validation standard 2xLLOV): 81.5%
Short-time stability (24h, RT, with daylight) Accuracy [%] ([5]; validation standard 2xLLOV): 53.1%
Short-time stability (24h, RT, without daylight) Accuracy [%] ([5]; validation standard 2xLLOV): 45.4%
Short-time stability (1h, 56°C) Accuracy [%] ([5]; validation standard LLOV): 1.9%
Short-time stability (24h, 4°C, without daylight) Accuracy [%] ([5]; validation standard LLOV): 66.1%
Short-time stability (24h, RT, with daylight) Accuracy [%] ([5]; validation standard LLOV): -0.2%
Short-time stability (24h, RT, without daylight) Accuracy [%] ([5]; validation standard LLOV): 52.8%
Short-time stability (1h, 56°C) Accuracy [%] ([5]; validation standard MOV): 48.8%
Short-time stability (24h, 4°C, without daylight) Accuracy [%] ([5]; validation standard MOV): 93.6%
Short-time stability (24h, RT, with daylight) Accuracy [%] ([5]; validation standard MOV): 92.2%
Short-time stability (24h, RT, without daylight) Accuracy [%] ([5]; validation standard MOV): 96.2%
Short-time stability (1h, 56°C) Accuracy [%] ([5]; validation standard ULOV): 46.3%
Short-time stability (24h, 4°C, without daylight) Accuracy [%] ([5]; validation standard ULOV): 89.2%
Short-time stability (24h, RT, with daylight) Accuracy [%] ([5]; validation standard ULOV): 96.0%
Short-time stability (24h, RT, without daylight) Accuracy [%] ([5]; validation standard ULOV): 100.4%

CCc1cc2c(cc1N1CCC(N3CCOCC3)CC1)C(C)(C)c1[nH]c3cc(C#N)ccc3c1C2=O [Alectinib]
Freeze-Thaw Accuracy [%] ([1]; validation standard 2xLLOV): 100.0%
Freeze-Thaw Accuracy [%] ([1]; validation standard LLOV): 91.2%
Freeze-Thaw Accuracy [%] ([1]; validation standard MOV): 101.2%
Freeze-Thaw Accuracy [%] ([1]; validation standard ULOV): 96.5%
Autosampler (24h, 4°C) Accuracy [%] ([3]; validation standard 2xLLOV): 99.6%
Autosampler (72h, 4°C) Accuracy [%] ([3]; validation standard 2xLLOV): 102.6%
Autosampler (24h, 4°C) Accuracy [%] ([3]; validation standard LLOV): 91.8%
Autosampler (72h, 4°C) Accuracy [%] ([3]; validation standard LLOV): 93.7%
Autosampler (24h, 4°C) Accuracy [%] ([3]; validation standard MOV): 104.1%
Autosampler (72h, 4°C) Accuracy [%] ([3]; validation standard MOV): 104.1%
Autosampler (24h, 4°C) Accuracy [%] ([3]; validation standard ULOV): 99.3%
Autosampler (72h, 4°C) Accuracy [%] ([3]; validation standard ULOV): 100.6%
Long-term stability, 1 month, -20°C Accuracy [%] ([4]; validation standard 2xLLOV): 87.1%
Long-term stability, 1 month, -80°C Accuracy [%] ([4]; validation standard 2xLLOV): 83.3%
Long-term stability, 2 month, -20°C Accuracy [%] ([4]; validation standard 2xLLOV): 86.4%
Long-term stability, 2 month, -80°C Accuracy [%] ([4]; validation standard 2xLLOV): 86.9%
Long-term stability, 3 month, -20°C Accuracy [%] ([4]; validation standard 2xLLOV): 82.7%
Long-term stability, 3 month, -80°C Accuracy [%] ([4]; validation standard 2xLLOV): 86.1%
Long-term stability, 6 weeks, 4°C, without daylight Accuracy [%] ([4]; validation standard 2xLLOV): 81.2%
Long-term stability, 1 month, -20°C Accuracy [%] ([4]; validation standard LLOV): 84.7%
Long-term stability, 1 month, -80°C Accuracy [%] ([4]; validation standard LLOV): 83.5%
Long-term stability, 2 month, -20°C Accuracy [%] ([4]; validation standard LLOV): 79.9%
Long-term stability, 2 month, -80°C Accuracy [%] ([4]; validation standard LLOV): 81.8%
Long-term stability, 3 month, -20°C Accuracy [%] ([4]; validation standard LLOV): 79.0%
Long-term stability, 3 month, -80°C Accuracy [%] ([4]; validation standard LLOV): 81.6%
Long-term stability, 6 weeks, 4°C, without daylight Accuracy [%] ([4]; validation standard LLOV): 75.7%
Long-term stability, 1 month, -20°C Accuracy [%] ([4]; validation standard MOV): 85.8%
Long-term stability, 1 month, -80°C Accuracy [%] ([4]; validation standard MOV): 83.9%
Long-term stability, 2 month, -20°C Accuracy [%] ([4]; validation standard MOV): 89.5%
Long-term stability, 2 month, -80°C Accuracy [%] ([4]; validation standard MOV): 89.3%
Long-term stability, 3 month, -20°C Accuracy [%] ([4]; validation standard MOV): 88.4%
Long-term stability, 3 month, -80°C Accuracy [%] ([4]; validation standard MOV): 86.7%
Long-term stability, 6 weeks, 4°C, without daylight Accuracy [%] ([4]; validation standard MOV): 92.7%
Long-term stability, 1 month, -20°C Accuracy [%] ([4]; validation standard ULOV): 85.2%
Long-term stability, 1 month, -80°C Accuracy [%] ([4]; validation standard ULOV): 81.7%
Long-term stability, 2 month, -20°C Accuracy [%] ([4]; validation standard ULOV): 88.3%
Long-term stability, 2 month, -80°C Accuracy [%] ([4]; validation standard ULOV): 88.1%
Long-term stability, 3 month, -20°C Accuracy [%] ([4]; validation standard ULOV): 84.7%
Long-term stability, 3 month, -80°C Accuracy [%] ([4]; validation standard ULOV): 84.8%
Long-term stability, 6 weeks, 4°C, without daylight Accuracy [%] ([4]; validation standard ULOV): 86.5%
